Source: US20230265105A1, “MACROCYCLIC 7-PYRAZOL-5-YL-INDOLE DERIVATIVES AS INHIBITORS OF MCL-1” (Janssen Pharmaceutica NV, priority 2020, published 2023)
pKi: −log10 of the molar value.

How the values were obtained:
[1] = molecular target: Myeloid Cell Leukemia 1 (Mcl-1) (Homo sapiens, UniProt Q07820); experiment: Terbium labeled Mcl-1 HTRF binding assay with Cy5-labeled BIM BH3 peptide; conditions: Ki=IC50/(1+[L]/Kd), [L]=8 nM, Kd=10 nM, 60 min incubation at room temperature, read-out: Tb-MCL1 Ki
Experimental: Terbium labeled Myeloid Cell Leukemia 1 (Mcl-1) homogeneous time-resolved fluorescence (HTRF) binding assay utilizing the BIM BH3 peptide (H2N-(C/Cy5Mal) WIAQELRRIGDEFN-OH) as the binding partner for Mcl-1.
This assay evaluated inhibition of the BH3 domain: Mcl-1 interaction by measuring the displacement of Cy5-labeled BIM BH3 peptide (H2N—(C/Cy5Mal) WIAQELRRIGDEFN-OH) in the HTRF assay format.
The following assay and stock buffers were prepared for use in the assay: (a) Stock buffer: 10 mM Tris-HCl, pH=7.5+150 mM NaCl, filtered, sterilized, and stored at 4° C.; and (b) 1×assay buffer, where the following ingredients were added fresh to stock buffer: 2 mM dithiothreitol (DTT), 0.0025% Tween-20, 0.1 mg/mL bovine serum albumin (BSA). The 1×Tb-Mcl-1+Cy5 Bim peptide solution was prepared by diluting the protein stock solution using the 1×assay buffer (b) to 25 pM Tb-Mcl-1 and 8 nM Cy5 Bim peptide.
Using the Acoustic ECHO, 100 nL of 100×test compound(s) were dispensed into individual wells of a white 384-well Perkin Elmer Proxiplate, for a final compound concentration of 1× and final DMSO concentration of 1%. Inhibitor control and neutral control (NC, 100 nL of 100% DMSO) were stamped into columns 23 and 24 of assay plate, respectively. Into each well of the plate was then dispensed 10 μL of the 1×Tb-Mcl-1+Cy5 Bim peptide solution. The plate was centrifuged with a cover plate at 1000 rpm for 1 minute, then incubated for 60 minutes at room temperature with plates covered.
The TR-FRET signal was read on an BMG PHERAStar FSX MicroPlate Reader at room temperature using the HTRF optic module (HTRF: excitation: 337 nm, light source: laser, emission A: 665 nm, emission B: 620 nm, integration start: 60 μs, integration time: 400 μs).
The BMG PHERAStar FSX MicroPlate Reader was used to measure fluorescence intensity at two emission wavelengths—665 nm and 620 nm—and report relative fluorescence units (RFU) for both emissions, as well as a ratio of the emissions (665 nm/620 nm)*10,000. The RFU values were normalized to percent inhibition as follows:
% inhibition=(((NC−IC)−(compound−IC))/(NC−IC))*100
where IC (inhibitor control, low signal)=mean signal of 1×Tb-MCl-1+Cy5 Bim peptide+inhibitor control or 100% inhibition of Mcl-1; NC (neutral control, high signal)=mean signal 1×Tb-MCl-1+Cy5 Bim peptide with DMSO only or 0% inhibition
An 11-point dose response curve was generated to determine IC50 values (using GenData) based on the following equation:
Y=Bottom+(Top−Bottom)/(1+10^((log IC50−X)*HillSlope))
where Y=% inhibition in the presence of X inhibitor concentration; Top=100% inhibition derived from the IC (mean signal of Mcl-1+inhibitor control); Bottom=0% inhibition derived from the NC (mean signal of Mcl-1+DMSO); Hillslope=Hill coefficient; and IC50=concentration of compound with 50% inhibition in relation to top/neutral control (NC).
In this assay [L]=8 nM and Kd=10 nM
Representative compounds of the present invention were tested according to the procedure as described above, with results as listed in the Table below (n.d. means not determined).

[2] = system: MOLP-8 human multiple myeloma cell line; experiment: MOLP8 Caspase-Glo 3/7 apoptosis induction assay; format: cell-based; conditions: MOLP-8 cells, 2 hours at 37° C., 30 μM highest conc., averaged over all runs on all batches
From the text: MCL-1 is a regulator of apoptosis and is highly over-expressed in tumor cells that escape cell death. The assay evaluates the cellular potency of small-molecule compounds targeting regulators of the apoptosis pathway, primarily MCL-1, Bfl-1, Bcl-2, and other proteins of the Bcl-2 family. Protein-protein inhibitors disrupting the interaction of anti-apoptotic regulators with BH3-domain proteins initiate apoptosis.
The Caspase-Glo® 3/7 Assay is a luminescent assay that measures caspase-3 and -7 activities in purified enzyme preparations or cultures of adherent or suspension cells. The assay provides a proluminescent caspase-3/7 substrate, which contains the tetrapeptide sequence DEVD. This substrate is cleaved to release aminoluciferin, a substrate of luciferase used in the production of light. Addition of the single Caspase-Glo® 3/7 Reagent in an “add-mix-measure” format results in cell lysis, followed by caspase cleavage of the substrate and generation of a “glow-type” luminescent signal.
This assay uses the MOLP-8 human multiple myeloma cell line, which is sensitive to MCL-1 inhibition.
Cell cultures were maintained between 0.2 and 2.0×10^6 cells/mL. The cells were harvested by collection in 50 mL conical tubes. The cells were then pelleted at 500 g for 5 mins before removing supernatant and resuspension in fresh pre-warmed culture medium. The cells were counted and diluted as needed.
The assay reagent was prepared by transferring the buffer solution to the substrate vial and mixing. The solution may be stored for up to 1 week at 4° C. with negligible loss of signal.
Compounds were delivered in assay-ready plates (Proxiplate) and stored at −20° C.
Assays always include 1 reference compound plate containing reference compounds. The plates were spotted with 40 nL of compounds (0.5% DMSO final in cells; serial dilution; 30 μM highest conc. 1/3 dilution, 10 doses, duplicates). The compounds were used at room temperature and 4 μL of pre-warmed media was added to all wells except column 2 and 23. The negative control was prepared by adding 1% DMSO in media. The positive control was prepared by adding the appropriate positive control compound in final concentration of 60 μM in media. The plate was prepared by adding 4 μL negative control to column 23, 4 μL positive control to column 2 and 4 μL cell suspension to all wells in the plate. The plate with cells was then incubated at 37° C. for 2 hours. The assay signal reagent is the Caspase-Glo solution described above, and 8 μL was added to all wells. The plates were then sealed and measured after 30 minutes.
The activity of a test compound was calculated as percent change in apoptosis induction as follows:
[formula] [formula] % Effect (AC50)=100−((sample−LC)/(HC−LC))*100
% Control=(sample/HC)*100
% Control min=(sample−LC)/(HC−LC)*100

Chain of Myeloid Cell Leukemia 1 (Mcl-1) (Q07820 whole entry): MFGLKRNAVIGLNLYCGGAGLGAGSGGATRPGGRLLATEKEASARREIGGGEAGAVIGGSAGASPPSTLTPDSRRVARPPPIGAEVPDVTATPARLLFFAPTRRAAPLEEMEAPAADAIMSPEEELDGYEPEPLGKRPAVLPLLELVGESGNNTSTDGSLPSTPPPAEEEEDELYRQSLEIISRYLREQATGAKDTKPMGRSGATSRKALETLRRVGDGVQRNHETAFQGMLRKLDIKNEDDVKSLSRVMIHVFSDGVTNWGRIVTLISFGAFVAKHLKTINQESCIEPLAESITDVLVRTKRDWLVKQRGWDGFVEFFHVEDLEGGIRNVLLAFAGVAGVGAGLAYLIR

Structure (SMILES) | pKi [1] | AC50 [2] | AC50 ([2]; Homo sapiens, MOLP-8, 2 h)
COCCn1c(C(=O)O)c2c3ccc(Cl)c(c31)-c1c(cnn1C)CSCc1cc(n(C)n1)CCc1cc(c3ccc(F)cc3c1)OCCC2 (single isomer, unassigned) [Compound 24] | 8.67 | 2530 nM | 
Cn1nc2cc1CCc1cc(c3ccc(F)cc3c1)OCCCc1c(C(=O)O)[nH]c3c(c(Cl)ccc13)-c1c(cnn1C)CSC2 (single isomer, unassigned) [Compound 25] | 9.09 | 4130 nM | 
Cn1nc2cc1CCc1cc(c3ccc(F)cc3c1)OCCCc1c(C(=O)O)[nH]c3c(c(Cl)ccc13)-c1c(cnn1C)CSC2 (single isomer, unassigned) [Compound 26] | 10.35 | 235 nM | 
CN(C)CCn1c(C(=O)O)c2c3ccc(Cl)c(c31)-c1c(cnn1C)CSCc1cc(n(C)n1)CCc1cc(c3ccc(F)cc3c1)OCCC2 (single isomer, unassigned) [Compound 27] | 10.51 |  | 117 nM
